Laboratory results published in US12479847B2 (DANA-FARBER CANCER INSTITUTE, INC., priority 2019, dated 2025).

What was measured:
Assay in all cases: KINOMEscan (ScanMAX) kinase profiling
Format in all cases: binding
panel of 468 kinases [1] = target: T1, panel of 468 kinases (Homo sapiens, UniProt O00444); conditions: PLK4; 1 μM; read-out: % control
T1 construct: purchased KINOMEscan (ScanMAX) service
T1 sequence (O00444 1-970): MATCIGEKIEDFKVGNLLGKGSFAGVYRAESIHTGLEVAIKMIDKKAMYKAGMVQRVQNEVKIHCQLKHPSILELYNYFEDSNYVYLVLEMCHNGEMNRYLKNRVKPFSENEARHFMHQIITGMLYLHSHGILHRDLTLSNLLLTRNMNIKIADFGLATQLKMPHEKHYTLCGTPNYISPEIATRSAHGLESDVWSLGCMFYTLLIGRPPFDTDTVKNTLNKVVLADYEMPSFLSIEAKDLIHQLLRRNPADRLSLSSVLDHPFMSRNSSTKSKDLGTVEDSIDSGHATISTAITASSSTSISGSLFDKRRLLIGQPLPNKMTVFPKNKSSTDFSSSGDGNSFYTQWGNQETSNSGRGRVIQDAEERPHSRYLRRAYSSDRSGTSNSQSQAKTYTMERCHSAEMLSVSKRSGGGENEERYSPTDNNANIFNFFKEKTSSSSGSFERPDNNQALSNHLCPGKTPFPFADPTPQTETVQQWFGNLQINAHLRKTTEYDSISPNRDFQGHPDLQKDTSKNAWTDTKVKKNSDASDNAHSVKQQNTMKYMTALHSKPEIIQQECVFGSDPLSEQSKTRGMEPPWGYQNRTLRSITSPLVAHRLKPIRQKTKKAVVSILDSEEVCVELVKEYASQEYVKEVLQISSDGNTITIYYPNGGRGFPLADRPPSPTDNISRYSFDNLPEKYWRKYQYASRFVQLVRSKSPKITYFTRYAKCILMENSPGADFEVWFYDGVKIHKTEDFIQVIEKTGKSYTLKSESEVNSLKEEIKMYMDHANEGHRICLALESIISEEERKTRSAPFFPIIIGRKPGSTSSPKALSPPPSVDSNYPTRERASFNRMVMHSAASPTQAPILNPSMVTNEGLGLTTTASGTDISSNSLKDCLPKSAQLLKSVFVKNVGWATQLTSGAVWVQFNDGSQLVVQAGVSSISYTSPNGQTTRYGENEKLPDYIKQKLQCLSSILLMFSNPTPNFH

panel of 468 kinases [2] = target: T2, panel of 468 kinases (Homo sapiens, UniProt P41743); conditions: PRKCI; 1 μM; read-out: % control
T2 construct: purchased KINOMEscan (ScanMAX) service
T2 sequence (P41743 1-596): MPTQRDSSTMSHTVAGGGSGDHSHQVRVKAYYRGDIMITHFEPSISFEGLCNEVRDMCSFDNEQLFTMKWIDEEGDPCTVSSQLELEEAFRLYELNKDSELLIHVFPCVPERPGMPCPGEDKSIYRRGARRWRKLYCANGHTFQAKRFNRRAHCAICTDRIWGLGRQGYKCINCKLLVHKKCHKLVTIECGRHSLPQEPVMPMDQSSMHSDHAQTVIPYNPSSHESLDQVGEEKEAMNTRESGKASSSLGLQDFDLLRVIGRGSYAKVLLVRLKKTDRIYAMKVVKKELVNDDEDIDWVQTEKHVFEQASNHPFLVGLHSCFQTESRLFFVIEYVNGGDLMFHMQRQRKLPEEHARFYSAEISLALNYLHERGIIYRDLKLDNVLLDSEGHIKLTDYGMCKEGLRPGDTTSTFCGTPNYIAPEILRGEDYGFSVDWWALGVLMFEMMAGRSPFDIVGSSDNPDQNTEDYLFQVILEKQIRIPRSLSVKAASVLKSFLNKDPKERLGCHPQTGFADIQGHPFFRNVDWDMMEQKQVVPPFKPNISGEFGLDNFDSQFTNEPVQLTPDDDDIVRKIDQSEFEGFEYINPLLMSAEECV

panel of 468 kinases [3] = target: T3, panel of 468 kinases (Homo sapiens, UniProt P42336, M1043I); conditions: PIK3CA(M1043I); 1 μM; read-out: % control
T3 construct: purchased KINOMEscan (ScanMAX) service

panel of 468 kinases [4] = target: T4, panel of 468 kinases (Homo sapiens, UniProt P52564); conditions: MEK6; 1 μM; read-out: % control
T4 construct: purchased KINOMEscan (ScanMAX) service
T4 sequence (P52564 1-334): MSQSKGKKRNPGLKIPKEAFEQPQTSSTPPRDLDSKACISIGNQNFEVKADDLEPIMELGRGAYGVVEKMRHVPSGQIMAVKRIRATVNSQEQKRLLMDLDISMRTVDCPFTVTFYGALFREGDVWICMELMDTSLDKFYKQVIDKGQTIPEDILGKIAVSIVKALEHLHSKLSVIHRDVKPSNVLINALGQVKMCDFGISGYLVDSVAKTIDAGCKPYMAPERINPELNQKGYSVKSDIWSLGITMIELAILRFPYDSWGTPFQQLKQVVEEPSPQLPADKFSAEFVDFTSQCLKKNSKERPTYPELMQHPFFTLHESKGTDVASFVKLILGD

panel of 468 kinases [5] = target: T5, panel of 468 kinases (Homo sapiens, UniProt Q9BXA7); conditions: TSSK1B; 1 μM; read-out: % control
T5 construct: purchased KINOMEscan (ScanMAX) service
T5 sequence (Q9BXA7 1-367): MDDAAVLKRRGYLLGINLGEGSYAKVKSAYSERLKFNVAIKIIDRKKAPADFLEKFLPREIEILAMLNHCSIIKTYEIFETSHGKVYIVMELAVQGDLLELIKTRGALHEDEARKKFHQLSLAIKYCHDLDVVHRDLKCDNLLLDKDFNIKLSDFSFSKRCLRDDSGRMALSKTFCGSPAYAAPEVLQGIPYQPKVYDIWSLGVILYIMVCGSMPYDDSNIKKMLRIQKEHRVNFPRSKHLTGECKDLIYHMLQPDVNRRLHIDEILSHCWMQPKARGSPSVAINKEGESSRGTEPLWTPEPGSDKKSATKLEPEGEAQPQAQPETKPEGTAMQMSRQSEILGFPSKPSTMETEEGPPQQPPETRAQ

T3 sequence (P42336 whole entry M1043I): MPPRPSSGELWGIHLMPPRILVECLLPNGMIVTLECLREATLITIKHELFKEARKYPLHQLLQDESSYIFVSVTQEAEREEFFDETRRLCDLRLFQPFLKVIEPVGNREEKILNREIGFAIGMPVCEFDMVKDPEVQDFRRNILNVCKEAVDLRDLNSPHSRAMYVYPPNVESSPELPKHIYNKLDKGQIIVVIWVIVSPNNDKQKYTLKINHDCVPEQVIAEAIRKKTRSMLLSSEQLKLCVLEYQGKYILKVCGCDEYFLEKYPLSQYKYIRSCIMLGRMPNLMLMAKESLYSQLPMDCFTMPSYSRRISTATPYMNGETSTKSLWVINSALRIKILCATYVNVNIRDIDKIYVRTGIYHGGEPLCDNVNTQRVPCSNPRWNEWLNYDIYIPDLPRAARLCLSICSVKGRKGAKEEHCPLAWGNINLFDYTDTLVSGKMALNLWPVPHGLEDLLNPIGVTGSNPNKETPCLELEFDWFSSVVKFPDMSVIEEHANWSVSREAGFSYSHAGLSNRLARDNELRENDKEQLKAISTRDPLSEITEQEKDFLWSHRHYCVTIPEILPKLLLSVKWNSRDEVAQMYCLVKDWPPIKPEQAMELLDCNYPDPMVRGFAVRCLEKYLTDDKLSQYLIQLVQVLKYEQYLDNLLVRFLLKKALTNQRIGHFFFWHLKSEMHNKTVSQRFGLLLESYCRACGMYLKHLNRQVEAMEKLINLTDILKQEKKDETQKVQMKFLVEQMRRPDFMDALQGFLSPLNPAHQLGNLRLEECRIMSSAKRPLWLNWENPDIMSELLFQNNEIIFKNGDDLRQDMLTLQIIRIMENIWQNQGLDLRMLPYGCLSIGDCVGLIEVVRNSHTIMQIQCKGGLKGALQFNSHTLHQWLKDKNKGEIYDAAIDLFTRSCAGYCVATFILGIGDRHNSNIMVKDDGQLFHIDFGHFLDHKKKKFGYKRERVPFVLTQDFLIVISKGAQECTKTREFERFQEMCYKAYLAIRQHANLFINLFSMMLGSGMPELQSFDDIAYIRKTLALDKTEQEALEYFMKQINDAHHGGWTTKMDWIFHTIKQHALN

Work on `CNc1nc(Nc2ccc(S(=O)(=O)N3CCC(N4CCOCC4)CC3)cc2OC)nc2[nH]cc(Cl)c12` [Compound 12, 5-chloro-N2-(2-methoxy-4-((4-morpholinopiperidin-1-yl)sulfonyl)phenyl)-N4-methyl-7H-pyrrolo[2,3-d]pyrimidine-2,4-diamine] yielded a remaining binding at 1 µM (panel of 468 kinases [1]) of 22%, a remaining binding at 1 µM (panel of 468 kinases [2]) of 54% and a remaining binding at 1 µM (panel of 468 kinases [3]) of 98%. For the same compound, the remaining binding at 1 µM (panel of 468 kinases [4]) was 96% and the remaining binding at 1 µM (panel of 468 kinases [5]) was 72%.
Work on `CNc1nc(Nc2ccc(C(=O)N3CCC(N4CCOCC4)CC3)c3c2OCO3)nc2[nH]cc(Cl)c12` [Compound 75, (7-((5-chloro-4-(methylamino)-7H-pyrrolo[2,3-d]pyrimidin-2-yl)amino)benzo[d][1,3]dioxol-4-yl)(4-morpholinopiperidin-1-yl)methanone] yielded a remaining binding at 1 µM (panel of 468 kinases [1]) of 9.6%, a remaining binding at 1 µM (panel of 468 kinases [2]) of 65% and a remaining binding at 1 µM (panel of 468 kinases [3]) of 99%. For the same compound, the remaining binding at 1 µM (panel of 468 kinases [4]) was 10% and the remaining binding at 1 µM (panel of 468 kinases [5]) was 49%.
`CNc1nc(Nc2ccc(P3(=O)CCN(C4CCOCC4)CC3)cc2OC)nc2[nH]cc(Cl)c12` [Compound 77, 4-(4-((5-chloro-4-(methylamino)-7H-pyrrolo[2,3-d]pyrimidin-2-yl)amino)-3-methoxyphenyl)-1-(tetrahydro-2H-pyran-4-yl)-1,4-azaphosphinane 4-oxide] was tested, and the remaining binding at 1 µM (panel of 468 kinases [1]) was 15%, the remaining binding at 1 µM (panel of 468 kinases [2]) was 55% and the remaining binding at 1 µM (panel of 468 kinases [3]) was 96%. It also gave a remaining binding at 1 µM (panel of 468 kinases [4]) of 56% and a remaining binding at 1 µM (panel of 468 kinases [5]) of 33%.
